# Like-named read-outs stand apart in the source and are kept apart here.
# Tests used:
# [1] = Solubility in water, methanol and isopropanol; assay type: physicochemical
# Protocol: The solubility in water, methanol, and isopropanol of the compounds of the present disclosure and the comparative compounds were measured separately.
# [2] = system: histamine-induced asthma in guinea pigs; experiment: Antiasthmatic effect on histamine-induced asthma in guinea pigs; assay type: in vivo, guinea pig; conditions: 60 min after 1 mg/kg oral gavage; histamine hydrochloride spray; no asthma within 8 min counted as 8 min; X ± s, n = 5
# Protocol: The time point at which the guinea pigs developed asthma was recorded. The time of convulsion and fall was taken as the latency period. Guinea pigs with a latency period exceeding 180 seconds were not selected. […] The guinea pigs were administered by oral gavage at a dose of 2 mL/kg·bw. Sixty minutes after the administration, the guinea pigs were placed in bell jars, and histamine hydrochloride solution was sprayed under the same conditions as in the previous selection. The latency period for the onset of asthma was recorded. […] The results were processed statistically.
# [3] = system: isolated ileal smooth muscle of guinea pigs; experiment: Muscle tone of isolated ileal smooth muscle of guinea pigs (compound alone); parameters: species or system guinea pig; conditions: 5 minutes after adding drug, no histamine; X ± s, n = 8
# Protocol: (§1) The guinea pig was knocked unconscious with a wooden stick, and the abdomen was immediately dissected to separate the ileum about 15 cm in length. The contents of the intestinal segment were flushed with Tyrode's solution and placed in Tyrode's solution at a constant temperature of 37° C. for later use, and oxygen was supplied simultaneously. The experimental intestinal tract (1 cm in length) was cut and placed into 20 ml of Tyrode's solution at a constant temperature of 37° C. with a continuous oxygen supply. One end of the intestine was fixed on the ventilation hook and the other end was connected to the muscle tone transducer and led to the computer interface. The muscle tone value of the ileal smooth muscle was recorded with a BL system. The experiment was carried out after the intestinal segment contraction became stable. […] The operation was repeated 8 times. The antispasmodic percentage was calculated according to the following formula. [formula]
# [4] = Accelerated stability test; assay type: physicochemical; conditions: 40° C.±2° C., RH 75%±5%
# Protocol: The compound of the present disclosure was placed at a temperature of 40° C.±2° C. and a relative humidity of 75%±5% for 6 months, and samples were taken to determine for the descriptions, related substances, and contents.
# [5] = system: histamine-contracted isolated ileal smooth muscle of guinea pigs; experiment: Muscle tone of isolated ileal smooth muscle of guinea pigs contracted with histamine; parameters: species or system guinea pig; conditions: 3 minutes after adding 0.05 mL compound to histamine-contracted ileum; x ± s, n = 8
# Protocol: as §1, with “using” for “according to”, “equation.” for “formula. [formula]”
# [6] = organic solvent or mixture, solvent isopropanol, read-out: Solubility, Isopropanol
# [7] = organic solvent or mixture, solvent methanol, read-out: Solubility, Methanol
# [8] = water, solvent water, read-out: Solubility, Water
# [9] = methanol, organic solvent or mixture, solvent methanol, read-out: Solubility, Methanol
# [10] = isopropanol, organic solvent or mixture, solvent isopropanol, read-out: Solubility, Isopropanol
SMILES,"solubility [1, 8]","solubility [1, 9]","solubility [1, 10]",also measured
O=P(O)(O)OCCN1CCC(=C2c3ccc(Cl)cc3CCc3cccnc32)CC1 [Compound III-4],28 mg/mL,–,–,"solubility [1, 6]: 22 mg/mL; solubility [1, 7]: 38 mg/mL"
O=P(O)(O)OCCN1CCC(=C2c3ccc(F)cc3CCc3cccnc32)CC1 [Compound III-5],28 mg/mL,–,–,"solubility [1, 6]: 22 mg/mL; solubility [1, 7]: 40 mg/mL"
O=P(O)(O)OCCN1CCC(=C2c3ccc(Br)cc3CCc3cccnc32)CC1 [Compound III-6],28 mg/mL,–,–,"solubility [1, 6]: 22 mg/mL; solubility [1, 7]: 40 mg/mL"
O=P(O)(O)OCCCN1CCC(=C2c3ccc(Cl)cc3CCc3cccnc32)CC1 [Compound III-7],30 mg/mL,40 mg/mL,–,–
O=P(O)(O)OCCCN1CCC(=C2c3ccc(F)cc3CCc3cccnc32)CC1 [Compound III-8],30 mg/mL,40 mg/mL,22 mg/mL,Post-administration latency period [2]: 370.94 ± 50.29 s
O=P(O)(O)OCCCN1CCC(=C2c3ccc(Br)cc3CCc3cccnc32)CC1 [Compound III-9],30 mg/mL,40 mg/mL,22 mg/mL,–
O=P(O)(O)OCCCCN1CCC(=C2c3ccc(Cl)cc3CCc3cccnc32)CC1 [Compound III-10],30 mg/mL,43 mg/mL,–,Antispasmodic percentage (%) [3]: 35.75 ± 19.99%
O=P(O)(O)OCCCCN1CCC(=C2c3ccc(F)cc3CCc3cccnc32)CC1 [Compound III-11],30 mg/mL,43 mg/mL,25 mg/mL,Antispasmodic percentage (%) [3]: 31.58 ± 18.30%
O=P(O)(O)OCCCCN1CCC(=C2c3ccc(Br)cc3CCc3cccnc32)CC1 [Compound III-12],32 mg/mL,43 mg/mL,25 mg/mL,–
O=P(O)(O)OCCCCCN1CCC(=C2c3ccc(Cl)cc3CCc3cccnc32)CC1 [Compound III-13],32 mg/mL,44 mg/mL,–,–
O=P(O)(O)OCCCCCN1CCC(=C2c3ccc(F)cc3CCc3cccnc32)CC1 [Compound III-14],32 mg/mL,44 mg/mL,25 mg/mL,Content ([4]; Month 2): 99.5%; Content ([4]; Month 3): 99.5%
O=P(O)(O)OCCCCCN1CCC(=C2c3ccc(Br)cc3CCc3cccnc32)CC1 [Compound III-15],32 mg/mL,44 mg/mL,25 mg/mL,–
O=P(O)(O)OCOCCCN1CCC(=C2c3ccc(Cl)cc3CCc3cccnc32)CC1 [Compound III-17],30 mg/mL,42 mg/mL,25 mg/mL,–
O=P(O)(O)OCOCCCCN1CCC(=C2c3ccc(Cl)cc3CCc3cccnc32)CC1 [Compound III-18],30 mg/mL,42 mg/mL,25 mg/mL,Content ([4]; Month 3): 99.5%
O=P(O)(O)OCOCCCCCN1CCC(=C2c3ccc(Cl)cc3CCc3cccnc32)CC1 [Compound III-19],30 mg/mL,42 mg/mL,25 mg/mL,–
O=P([O-])([O-])OCN1CCC(=C2c3ccc(Cl)cc3CCc3cccnc32)CC1.[Na+].[Na+] [Compound IV-1],432 mg/mL,44 mg/mL,–,–
O=P([O-])([O-])OCCN1CCC(=C2c3ccc(Cl)cc3CCc3cccnc32)CC1.[K+].[K+] [Compound IV-2],389 mg/mL,23 mg/mL,1 mg/mL,Content ([4]; Month 1): 99.6%; Content ([4]; Month 3): 99.5%
O=P([O-])([O-])OCCCCN1CCC(=C2c3ccc(Cl)cc3CCc3cccnc32)CC1.[Na+].[Na+] [Compound IV-4],–,20 mg/mL,1 mg/mL,Content ([4]; Month 1): 99.6%; Content ([4]; Month 2): 99.6%; Content ([4]; Month 3): 99.6%
O=P(O)(O)OCCCCCN1CCC(=C2c3ccc(Cl)cc3CCc3cccnc32)CC1 [Compound IV-7],–,–,–,Content ([4]; Month 3): 99.5%
O=P(O)(O)OCOCCN1CCC(=C2c3ccc(Cl)cc3CCc3cccnc32)CC1 [Compound IV-8],–,–,–,Smooth muscle tone (g) After administration [5]: 1.19 ± 0.28 g; Content ([4]; Month 3): 99.5%
O=P([O-])([O-])OCOCCCN1CCC(=C2c3ccc(Cl)cc3CCc3cccnc32)CC1.[Na+].[Na+] [Compound IV-9],411 mg/mL,27 mg/mL,2 mg/mL,Content ([4]; Month 1): 99.7%; Content ([4]; Month 2): 99.7%; Content ([4]; Month 3): 99.7%
O=P([O-])([O-])OCOCCCCN1CCC(=C2c3ccc(Cl)cc3CCc3cccnc32)CC1.[Na+].[Na+] [Compound IV-10],401 mg/mL,27 mg/mL,2 mg/mL,–
O=P([O-])([O-])OCOCCCCCN1CCC(=C2c3ccc(Cl)cc3CCc3cccnc32)CC1.[Na+].[Na+] [Compound IV-11],390 mg/mL,27 mg/mL,2 mg/mL,Smooth muscle tone (g) After administration [5]: 1.18 ± 0.28 g
"OCCCCCCN1CCC(=C2c3ccc(Cl)cc3CCc3cccnc32)CC1 [Hydroxyhexyl desloratadine, Hydroxyhexyl Desloratadine]",–,–,–,Antispasmodic percentage (%) [5]: 58.30 ± 14.11%
"OCCCCCN1CCC(=C2c3ccc(Cl)cc3CCc3cccnc32)CC1 [Hydroxypentyl desloratadine, Hydroxypentyl Desloratadine]",–,–,–,Antispasmodic percentage (%) [5]: 58.53 ± 12.34%
"OCCCN1CCC(=C2c3ccc(Cl)cc3CCc3cccnc32)CC1 [Hydroxypropyl desloratadine, Hydroxypropyl Desloratadine]",–,–,–,Antispasmodic percentage (%) [5]: 58.77 ± 13.82%
